According to US20140051679A1, “KINASE INHIBITORS AND METHOD OF TREATING CANCER WITH SAME” (UNIVERISTY HEALTH NETWORKS, priority 2011, published 2014):

Key:
human TTK = target: T1, human TTK (Homo sapiens, UniProt P33981); assay: TTK inhibition assay (indirect ELISA); type: biochemical; settings: GST-TTK 0.68 nM, 16 μM ATP; read-out: IC50 Ranges TTK
T1 construct: amino terminal GST fusion of full length human TTK; purchased Invitrogen
T1 sequence (P33981 1-857): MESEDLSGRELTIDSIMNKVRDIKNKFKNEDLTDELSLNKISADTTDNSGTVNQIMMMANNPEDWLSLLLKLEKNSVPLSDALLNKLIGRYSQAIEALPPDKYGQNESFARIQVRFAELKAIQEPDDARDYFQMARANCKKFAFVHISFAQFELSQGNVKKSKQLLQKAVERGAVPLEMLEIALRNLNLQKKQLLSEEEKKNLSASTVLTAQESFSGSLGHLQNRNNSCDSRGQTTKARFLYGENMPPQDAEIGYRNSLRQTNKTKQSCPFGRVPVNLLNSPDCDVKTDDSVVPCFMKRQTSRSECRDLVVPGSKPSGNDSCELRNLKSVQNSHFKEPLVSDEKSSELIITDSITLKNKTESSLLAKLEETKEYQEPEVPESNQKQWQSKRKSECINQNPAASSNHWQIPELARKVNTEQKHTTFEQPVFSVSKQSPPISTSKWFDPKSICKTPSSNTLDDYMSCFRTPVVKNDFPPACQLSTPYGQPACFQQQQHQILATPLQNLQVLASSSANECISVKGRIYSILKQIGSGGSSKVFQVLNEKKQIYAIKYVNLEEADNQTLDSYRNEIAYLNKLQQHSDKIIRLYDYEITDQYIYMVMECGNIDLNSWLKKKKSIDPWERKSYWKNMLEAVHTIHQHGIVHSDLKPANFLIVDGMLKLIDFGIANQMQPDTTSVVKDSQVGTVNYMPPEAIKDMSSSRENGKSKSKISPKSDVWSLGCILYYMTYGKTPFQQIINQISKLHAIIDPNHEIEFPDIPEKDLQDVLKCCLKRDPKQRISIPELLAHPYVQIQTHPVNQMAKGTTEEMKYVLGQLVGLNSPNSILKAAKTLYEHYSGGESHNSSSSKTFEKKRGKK

Aurora B = target: T2, Aurora B (Homo sapiens, UniProt Q96GD4); assay: Aurora B inhibition assay (Z-Lyte); type: biochemical; settings: 28 nM Aurora B, 128 μM ATP; read-out: IC50 Ranges Aurora B
T2 construct: purchased Invitrogen PV3970
T2 sequence (Q96GD4 whole entry): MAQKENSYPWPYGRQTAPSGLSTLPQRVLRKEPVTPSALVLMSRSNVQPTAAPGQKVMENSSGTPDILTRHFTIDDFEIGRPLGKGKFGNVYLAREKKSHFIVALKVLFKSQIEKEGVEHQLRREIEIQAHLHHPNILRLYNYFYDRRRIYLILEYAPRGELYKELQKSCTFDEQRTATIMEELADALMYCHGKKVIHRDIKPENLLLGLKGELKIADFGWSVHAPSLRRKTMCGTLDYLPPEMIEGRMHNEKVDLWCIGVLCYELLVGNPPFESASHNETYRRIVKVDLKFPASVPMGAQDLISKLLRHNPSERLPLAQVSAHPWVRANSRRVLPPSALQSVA
Procedure: Aurora B inhibition was determined using the Z-Lyte assay kit from Invitrogen. The assay was performed using the recommended manufacturer's instructions with 128 μM ATP and 28 nM Aurora B (Invitrogen cat #PV3970). The % inhibition values were determined according to the manufacturer's directions and IC50 values were obtained using a non-linear 4 point logistic curve fit (XLfit4, IDBS)

human PLK4 = target: T3, human PLK4 (Homo sapiens, UniProt O00444); assay: PLK4 inhibition assay (indirect ELISA); type: biochemical; settings: GST-PLK4 4 nM, 15 μM ATP; read-out: IC50 Ranges PLK4
T3 construct: amino terminal GST fusion of residues 1-391 of human PLK4; made in house; host or cells: E. coli
T3 sequence (O00444 1-391): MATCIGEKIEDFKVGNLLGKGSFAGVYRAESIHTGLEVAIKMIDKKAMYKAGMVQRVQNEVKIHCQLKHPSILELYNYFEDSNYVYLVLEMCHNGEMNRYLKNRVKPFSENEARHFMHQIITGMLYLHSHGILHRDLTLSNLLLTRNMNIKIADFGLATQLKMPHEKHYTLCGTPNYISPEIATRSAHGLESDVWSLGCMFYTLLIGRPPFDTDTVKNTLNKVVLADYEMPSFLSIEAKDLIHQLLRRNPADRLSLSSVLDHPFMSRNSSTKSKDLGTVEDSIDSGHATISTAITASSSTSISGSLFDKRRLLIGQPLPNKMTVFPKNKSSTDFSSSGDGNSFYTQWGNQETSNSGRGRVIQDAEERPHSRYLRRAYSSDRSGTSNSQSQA
Procedure: Active PLK4 was purified from an E. coli expression system as an amino terminal GST fusion of residues 1-391 of human PLK4. The protein was purified from clarified cell extracts after induction at 15° C. overnight using glutathione sepharose, gel permeation chromatography, and ion exchange (Resource Q). The resulting protein was dephosphorylated with lambda phosphatase (NEB cat#P0753), and resolved from the phosphatase using gluthione sepharose. The dephosphorylated GST-PLK4 was stored in aliquots at −80° C. until use.
PLK4 activity was measured using an indirect ELISA detection system. GST-PLK4 (4 nM) was incubated in the presence of 15 μM ATP (Sigma cat#A7699), 50 mM HEPES-Na^2+ pH 7.5, 10 mM MgCl2, 0.01% Brij 35 (Sigma cat#03-3170), in a 96 well microtitre plate pre-coated with MBP (Millipore cat#30-011). The reaction was allowed to proceed for 30 minutes, followed by 5 washes of the plate with Wash Buffer (phosphate buffered saline supplemented with 0.2% Tween 20), and incubation for 30 minutes with a 1:3000 dilution of primary antibody (Cell Signaling cat#9381). The plate was washed 5 times with Wash Buffer, incubated for 30 minutes in the presence of secondary antibody coupled to horse radish peroxidase (BioRad cat#1721019, 1:3000 concentration), washed an additional 5 times with Wash Buffer, and incubated in the presence of TMB substrate (Sigma cat#T0440). The colourimetric reaction was allowed to continue for 5 minutes, followed by addition of stop solution (0.5 N sulphuric acid), and quantified by detection at 450 nm with either a monochromatic or filter based plate reader (Molecular Devices M5 or Beckman DTX880, respectively).
Compound inhibition was determined at either a fixed concentration (10 μM) or at a variable inhibitor concentration (typically 0.5 μM to 0.001 μM in a 10 point dose response titration). Compounds were pre-incubated in the presence of enzyme for 15 minutes prior to addition of ATP and the activity remaining quantified using the above described activity assay. The % Inhibition of a compound was determined using the following formula; % Inhibition=100×(1-(experimental value−background value)/(high activity control−background value)). The IC50 value was determined using a non-linear 4 point logistic curve fit (XLfit4, IDBS) with the formula; (A+(B/(1+((x/C)̂D)))), where A=background value, B=range, C=inflection point, D=curve fit parameter.

[1] = system: MDA-MB-468 breast cancer cells; assay: Cell growth inhibition, Sulforhodamine B assay, MDA-MB-468; type: cell-based; settings: Homo sapiens, 120 h, 5 days culture, SRB assay, read-out: Cell Line GI50 Range MDA-MB-468
HT29 colon cancer cells = assay: Cell growth inhibition, Sulforhodamine B assay, HT29; type: cell-based; settings: Homo sapiens, HT-29, 120 h, 5 days culture, SRB assay, read-out: Cell Line GI50 Range HT29
[2] = system: HCT116 colon cancer cells; assay: Cell growth inhibition, Sulforhodamine B assay, HCT116; type: cell-based; settings: Homo sapiens, HCT-116, 120 h, 5 days culture, SRB assay, read-out: Cell Line GI50 Range HCT116

IC50 (human TTK)	IC50 (Aurora B)	IC50 (human PLK4)	GI50 [1]	GI50 (HT29 colon cancer cells)	GI50 [2]	SMILES
≤ 5 µM	≤ 5 µM	≤ 5 µM	≤ 5 µM	≤ 5 µM	≤ 5 µM	COC(C(=O)Nc1ccc2[nH]nc(-c3ccc(OC4CCN(C)CC4)cc3)c2c1)c1ccsc1 (stereo not drawn) [Example A37, 2-methoxy-N-(3-(4-((1-methylpiperidin-4-yl)oxy)phenyl)-1H-indazol-5-yl)-2-(thiophen-3-yl)acetamide]
≤ 5 µM	≤ 5 µM	≤ 5 µM	≤ 5 µM	≤ 5 µM	≤ 5 µM	CN1CCC(Oc2ccc(-c3n[nH]c4ccc(NC(=O)C5c6ccccc6CCN5C)cc34)cc2)CC1 (stereo not drawn) [Example A39, 2-methyl-N-(3-(4-((1-methylpiperidin-4-yl)oxy)phenyl)-1H-indazol-5-yl)-1,2,3,4-tetrahydroisoquinoline-1-carboxamide]
≤ 5 µM	≤ 5 µM	≤ 5 µM	≤ 5 µM	≤ 5 µM	≤ 5 µM	C[C@H]1CCCN1[C@H](C(=O)Nc1ccc2[nH]nc(-c3ccc(N4CCOCC4)cc3)c2c1)c1ccsc1 [Example A47, (S)-2-((S)-2-methylpyrrolidin-1-yl)-N-(3-(4-morpholinophenyl)-1H-indazol-5-yl)-2-(thiophen-3-yl)acetamide]
≤ 5 µM	≤ 5 µM	≤ 5 µM	≤ 5 µM	≤ 5 µM	≤ 5 µM	O=C(Nc1ccc2[nH]nc(-c3ccc(NC4CCOCC4)cc3)c2c1)C(c1ccsc1)N1CCCC1 (stereo not drawn) [Example A71, 2-(pyrrolidin-1-yl)-N-(3-(4-((tetrahydro-2H-pyran-4-yl)amino)phenyl)-1H-indazol-5-yl)-2-(thiophen-3-yl)acetamide]
≤ 5 µM	≤ 5 µM	≤ 5 µM	≤ 5 µM	≤ 5 µM	≤ 5 µM	CN(c1ccc(-c2n[nH]c3ccc(NC(=O)C(c4ccsc4)N4CCCC4)cc23)cc1)C1CCOCC1 (stereo not drawn) [Example A78, N-(3-(4-(methyl(tetrahydro-2H-pyran-4-yl)amino)phenyl)-1H-indazol-5-yl)-2-(pyrrolidin-1-yl)-2-(thiophen-3-yl)acetamide]
≤ 5 µM	≤ 5 µM	≤ 5 µM	–	–	–	CN1CCC(Oc2ccc(-c3n[nH]c4ccc(C(=O)N[C@H](c5ccccn5)C5CC5)cc34)cc2)CC1 [Example A214, (S)—N-(cyclopropyl(pyridin-2-yl)methyl)-3-(4-((1-methylpiperidin-4-yl)oxy)phenyl)-1H-indazole-5-carboxamide]

Continued, compound first:

SMILES	IC50 (human TTK)	IC50 (Aurora B)	IC50 (human PLK4)	GI50 [1]	GI50 (HT29 colon cancer cells)	GI50 [2]
O=C(N[C@H](c1ccccc1)C1CC1)c1ccc2[nH]nc(-c3ccc(N4CCOCC4)cc3)c2c1 [Example A49, (S)—N-(cyclopropyl(phenyl)methyl)-3-(4-morpholinophenyl)-1H-indazole-5-carboxamide]	≤ 5 µM	≤ 5 µM	≤ 5 µM	≤ 5 µM	≤ 5 µM	≤ 5 µM
C[C@@H]1CN(c2ccc(-c3n[nH]c4ccc(NC(=O)C(c5ccsc5)N5CCCC5)cc34)cc2)C[C@H](C)O1 (stereo partly drawn) [Example A50, N-(3-(4-((2S,6R)-2,6-dimethylmorpholino)phenyl)-1H-indazol-5-yl)-2-(pyrrolidin-1-yl)-2-(thiophen-3-yl)acetamide]	≤ 5 µM	≤ 5 µM	≤ 5 µM	≤ 5 µM	≤ 5 µM	≤ 5 µM
O=C(N[C@@H](c1ccccc1)C1CC1)c1ccc2[nH]nc(-c3ccc(N4CCOCC4)cc3)c2c1 [Example A51, (R)—N-(cyclopropyl(phenyl)methyl)-3-(4-morpholinophenyl)-1H-indazole-5-carboxamide]	≤ 5 µM	≤ 5 µM	≤ 5 µM	≤ 5 µM	≤ 5 µM	≤ 5 µM
C[C@H]1CCCN1[C@H](C(=O)Nc1ccc2[nH]nc(-c3ccc(N4CCOCC4)cc3)c2c1)c1cccs1 [Example A79, (R)-2-((S)-2-methylpyrrolidin-1-yl)-N-(3-(4-morpholinophenyl)-1H-indazol-5-yl)-2-(thiophen-2-yl)acetamide]	≤ 5 µM	≤ 5 µM	≤ 5 µM	≤ 5 µM	≤ 5 µM	≤ 5 µM
CN1CCC(Oc2ccc(-c3n[nH]c4ccc(NC(=O)C(c5ccsc5)N5CCCC5)cc34)cc2N)CC1 (stereo not drawn) [Example A80, N-(3-(3-amino-4-((1-methylpiperidin-4-yl)oxy)phenyl)-1H-indazol-5-yl)-2-(pyrrolidin-1-yl)-2-(thiophen-3-yl)acetamide]	≤ 5 µM	≤ 5 µM	≤ 5 µM	≤ 5 µM	≤ 5 µM	≤ 5 µM
O=CN1CCC(Oc2ccc(-c3n[nH]c4ccc(C(=O)N[C@H](c5ncccc5Cl)C5CC5)cc34)cc2)CC1 [Example A212, (S)—N-((3-chloropyridin-2-yl)(cyclopropyl)methyl)-3-(4-((1-formylpiperidin-4-yl)oxy)phenyl)-1H-indazole-5-carboxamide]	≤ 5 µM	≤ 5 µM	≤ 5 µM	–	–	–
CN1[C@@H]2CC[C@H]1C[C@@H](Oc1ccc(-c3n[nH]c4ccc(C(=O)N[C@H](c5ccccn5)C5CC5)cc34)cc1)C2 [Example A213, N—((S)-cyclopropyl(pyridin-2-yl)methyl)-3-(4-(((1R,3r,5S)-8-methyl-8-azabicyclo[3.2.1]octan-3-yl)oxy)phenyl)-1H-indazole-5-carboxamide]	≤ 5 µM	≤ 5 µM	≤ 5 µM	–	–	–
